IC50 data for 40 compounds are collected here from US12365667B2, “Sulfone pyridine alkyl amide-substituted heteroaryl compounds” (BRISTOL-MYERS SQUIBB COMPANY, priority 2017, dated 2025).

The subject of one experiment is IFNα-induced STAT phosphorylation (pSTAT5) in human whole blood. Put plainly: IFNα-Induced STAT Phosphorylation in Human Whole Blood. In kind it is cell-based. The settings on record: 1 h incubation with compound, 1000 U/mL recombinant human IFNα A/D for 15 min, pSTAT5 in CD3 positive population, read-out: IFNα-Induced Stat Phosph. (IC50).
With `CNC(=O)c1cnc(Nc2ccccn2)cc1Nc1ncccc1S(C)(=O)=O` [Example 216], the half-inhibitory concentration (IC50) – broadly, the concentration at which inhibition is half-maximal – amounted to 0.028 µM.

For the compound `CNC(=O)c1cnc(Nc2ccc(Cl)cn2)cc1Nc1ncccc1S(C)(=O)=O` [Example 217], the IC50 turned out to be 0.052 µM.

For the compound `CNC(=O)c1cnc(Nc2cc(C)c(F)cn2)cc1Nc1ncccc1S(C)(=O)=O` [Example 218], the IC50 was found to be 0.034 µM.

`CNC(=O)c1cnc(Nc2ccc(C(F)(F)F)cn2)cc1Nc1ncccc1S(C)(=O)=O` [Example 219]: the IC50 is 0.024 µM.

In the case of `CNC(=O)c1cnc(Nc2ccc(C#N)cn2)cc1Nc1ncccc1S(C)(=O)=O` [Example 220], the IC50 came to 0.015 µM.

As to `CNC(=O)c1cnc(Nc2cc(C#N)ccn2)cc1Nc1ncccc1S(C)(=O)=O` [Example 221], the half-maximal inhibitory concentration (IC50) was 0.013 µM.

On to `CNC(=O)c1cnc(Nc2cnc(C3CC3)cn2)cc1Nc1ncccc1S(C)(=O)=O` [Example 222], for which the IC50 was found to be 0.059 µM.

On to `CNC(=O)c1cnc(Nc2ccc(C(F)(F)F)nn2)cc1Nc1ncccc1S(C)(=O)=O` [Example 223], for which the IC50 stood at 0.094 µM.

Take `CNC(=O)c1cnc(Nc2cccnn2)cc1Nc1ncccc1S(C)(=O)=O` [Example 224]: the IC50 was determined as 0.044 µM.

In the case of `CNC(=O)c1cnc(Nc2cc(C(F)(F)F)ncn2)cc1Nc1ncccc1S(C)(=O)=O` [Example 225], the IC50 turned out to be 0.164 µM.

On to `CNC(=O)c1cnc(Nc2cc(C3CC3)nc(C3CC3)n2)cc1Nc1ncccc1S(C)(=O)=O` [Example 228], for which the 50% inhibitory concentration (IC50) turned out to be 0.181 µM.

On to `CNC(=O)c1cnc(Nc2cc(C3CC3)nc(C)n2)cc1Nc1ncccc1S(C)(=O)=O` [Example 229], for which the IC50 stood at 0.047 µM.

On to `CNC(=O)c1cnc(Nc2cc(C#N)c(C)cn2)cc1Nc1ncccc1S(C)(=O)=O` [Example 230], for which the IC50 worked out at 0.022 µM.

On to `CNC(=O)c1cnc(Nc2cc(C(F)(F)F)c(C#N)cn2)cc1Nc1ncccc1S(C)(=O)=O` [Example 231], for which the half-maximal inhibitory concentration (IC50) was determined as 0.36 µM.

In the case of `CNC(=O)c1cnc(Nc2cc(C#N)c(C(F)(F)F)cn2)cc1Nc1ncccc1S(C)(=O)=O` [Example 232], the IC50 was found to be 0.131 µM.

Take `CNC(=O)c1cnc(Nc2cc(C)c(C#N)cn2)cc1Nc1ncccc1S(C)(=O)=O` [Example 233]: the IC50 was determined as 0.061 µM.

Consider `CCC(=O)Nc1cc(Nc2ncccc2S(C)(=O)=O)c(C(=O)NC)cn1` [Example 235], for which the IC50 came to 0.144 µM.

As for `CNC(=O)c1cnc(NC(=O)C2CC2)cc1Nc1ncccc1S(C)(=O)=O` [Example 236], the IC50 was found to be 0.013 µM.

Turning to `CNC(=O)c1cnc(NC(=O)OC)cc1Nc1ncccc1S(C)(=O)=O` [Example 237], the half-maximal inhibitory concentration (IC50) turned out to be 1.08 µM.

Regarding `CNC(=O)c1cnc(Nc2cccc(-c3ccccc3)n2)cc1Nc1ncccc1S(C)(=O)=O` [Example 238], the IC50 was found to be 2.45 µM.

Consider `CNC(=O)c1cnc(NC(=O)C2CCC2)cc1Nc1ncccc1S(C)(=O)=O` [Example 239], for which the IC50 worked out at 0.288 µM.

Consider `CNC(=O)c1cnc(Nc2ccc(OC(F)(F)F)cn2)cc1Nc1ncccc1S(C)(=O)=O` [Example 240], for which the IC50 stood at 0.115 µM.

Turning to `CCC(=O)Nc1cc(Nc2nc(C)ccc2S(C)(=O)=O)c(C(=O)NC)cn1` [Example 241], the half-maximal inhibitory concentration (IC50) was found to be 0.203 µM.

Regarding `CNC(=O)c1cnc(NC(=O)C2CC2)cc1Nc1nc(C)ccc1S(C)(=O)=O` [Example 242], the IC50 turned out to be 0.05 µM.

As to `CNC(=O)c1nnc(Nc2ccc(C(C)(C)C)nn2)cc1Nc1ncccc1S(C)(=O)=O` [Example 245, 6-((6-(tert-butyl)pyridazinyl-3-yl)amino)-N-(methyl-d3)-4-((3-(methylsulfonyl)pyridin-2-yl)amino)pyridazine-3-carboxamide], the IC50 is 0.01 µM.

`[2H]C([2H])([2H])NC(=O)c1nnc(NC(=O)[C@H]2CC23CC3)cc1Nc1ncccc1S(C)(=O)=O` [Example 253, (S)—N-(methyl-d3)-4-((3-(methylsulfonyl)pyridin-2-yl)amino)-6-(spiro[2.2]pentane-1-carboxamido)pyridazine-3-carboxamide]: the IC50 was 0.047 µM.

On to `CNC(=O)c1nnc(Nc2cc(C)nc(C)n2)cc1Nc1ncccc1[S+](C)[O-]` (stereo not shown) [Example 254], for which the IC50 turned out to be 0.186 µM.

On to `CNC(=O)c1nnc(Nc2ccc(OC)nn2)cc1Nc1ncccc1[S+](C)[O-]` (stereo not shown) [Example 255], for which the IC50 was 0.466 µM.

On to `CNC(=O)c1nnc(Nc2ccn(C)n2)cc1Nc1ncccc1[S+](C)[O-]` (stereo not shown) [Example 256], for which the IC50 amounted to 0.744 µM.

In the case of `CNC(=O)c1nnc(Nc2ccc(C(C)(C)NC3COC3)cn2)cc1Nc1ncccc1S(C)(=O)=O` [compound 170], the IC50 is 0.011 µM.

For `CCNC(=O)c1nnc(Nc2cc(C3CC3)nc(C)n2)cc1Nc1ncccc1S(C)(=O)=O` [compound 212], the half-inhibitory concentration (IC50) was 1.08 µM.

For the compound `Cn1ccc(Nc2cc(Nc3ncccc3S(C)(=O)=O)c(C(N)=O)nn2)n1` [compound 214], the IC50 was found to be 0.046 µM.

The experiment is the same for the next values; noted with them: Homo sapiens, 1 h incubation with compound, 1000 U/mL recombinant human IFNα A/D for 15 min, pSTAT5 in CD3 positive population, read-out: IFNα-Induced Stat Phosph. (IC50).
With `CCNC(=O)c1nnc(Nc2ccc(C(C)(C)O)cn2)cc1Nc1ncccc1S(C)(=O)=O` [Example 211, N-ethyl-6-((5-(2-hydroxypropan-2-yl)pyridin-2-yl)amino)-4-((3-(methylsulfonyl)pyridin-2-yl)amino)pyridazine-3-carboxamide], the IC50 was 0.09 µM.

`COc1ccc(Nc2cc(Nc3ncccc3S(C)(=O)=O)c(C(N)=O)nn2)nn1` [Example 213, 6-((6-methoxypyridazin-3-yl)amino)-4-((3-(methylsulfonyl)pyridin-2-yl)amino)pyridazine-3-carboxamide]: the IC50 was 0.114 µM.

On to `[2H]C([2H])([2H])NC(=O)c1cnc(Nc2ccc(F)cn2)cc1Nc1ncccc1S(C)(=O)=O` [Example 215, 6-((5-fluoropyridin-2-yl)amino)-N-(methyl-d3)-4-((3-(methylsulfonyl)pyridin-2-yl)amino)nicotinamide], for which the IC50 stood at 0.021 µM.

`[2H]C([2H])([2H])NC(=O)c1cnc(Nc2ccc(-c3ccccc3)cn2)cc1Nc1ncccc1S(C)(=O)=O` [Example 234, N-(methyl-d3)-4-((3-(methylsulfonyl)pyridin-2-yl)amino)-6-((5-phenylpyridin-2-yl)amino)nicotinamide]: the IC50 was 0.636 µM.

In the case of `[2H]C([2H])([2H])NC(=O)c1nnc(Nc2ccc(OC(F)F)nn2)cc1Nc1ncccc1S(C)(=O)=O` [Example 246, 6-((6-(difluoromethoxy)pyridazin-3-yl)amino)-N-(methyl-d3)-4-((3-(methylsulfonyl)pyridin-2-yl)amino)pyridazine-3-carboxamide], the IC50 was 0.034 µM.

Consider `[2H]C([2H])([2H])NC(=O)c1nnc(Nc2ccc(C(C)C)nn2)cc1Nc1ncccc1S(C)(=O)=O` [Example 247, 6-((6-isopropylpyridazin-3-yl)amino)-N-(methyl-d3)-4-((3-(methylsulfonyl)pyridin-2-yl)amino)pyridazine-3-carboxamide], for which the IC50 was found to be 0.006 µM.

With `[2H]C([2H])([2H])NC(=O)c1nnc(Nc2cccnn2)cc1Nc1ncccc1S(C)(=O)=O` [Example 251, N-(methyl-d3)-4-((3-(methylsulfonyl)pyridin-2-yl)amino)-6-(pyridazin-3-ylamino)pyridazine-3-carboxamide], the IC50 stood at 0.007 µM.

Consider `[2H]C([2H])([2H])NC(=O)c1nnc(NC(=O)[C@@H]2CC23CC3)cc1Nc1ncccc1S(C)(=O)=O` [Example 252, (R)—N-(methyl-d3)-4-((3-(methylsulfonyl)pyridin-2-yl)amino)-6-(spiro[2.2]pentane-1-carboxamido)pyridazine-3-carboxamide], for which the IC50 was 0.053 µM.
